Test results from patent publication US20070227399A1, “COMPOSITIONS AND METHODS FOR THE PRESERVATION OF WOOD” (Novus International Inc., priority 2006, published 2007).

What was measured:
[1] = test system: Postia placenta (Madison 698); assay: AWPA E10-01 laboratory soil-block culture decay test of treated southern pine blocks; format: cell-based; conditions: for Mean percent weight loss (s.d. in parentheses), P. placenta: unleached southern pine blocks, 12 weeks, n = 5
Experimental: (§1) The decay resistance of southern pine treated with six experimental wood preservative formulations and exposed to two brown rot fungal species were tested using the AWPA E10-01 “Standard Method of Testing Wood Preservatives by Laboratory Soil-Block Cultures.” For this, conditioned blocks of wood are treated with suitable solutions of preservative. After a conditioning period, the wood blocks are exposed to a recognized destructive species of wood-destroying fungi. The minimum amount of preservative that protects the wood blocks against decay by a given fungus is defined as the threshold retention for that organism. Failure to protect is evidenced by loss of mass from the treated wood blocks, as indicated by a loss of weight.
(§2) Preparation of wood. Southern pine sapwood (Pinus spp.) with 6-10 rings/inch and clear of knots or other obvious defects was used. The wood was milled into test blocks of 19 mm×19 mm×19 mm. The test cubes were divided into density groups of ±5%, with 5 blocks per treatment or control. One feeder strip is needed for each block in a culture bottle. The sapwood selected for feeder strips should be capable of furnishing a satisfactory growth of the test fungus. Southern pine sapwood feeder strips were cut to approximately 3 by 28 by 34 mm with the grain of the wood parallel to either of the long dimensions and with the edge grain (radial surface) exposed to the flat face, insofar as possible.
(§3) The test blocks were pressure treated with the test preservatives, solvent alone, or two control wood preservatives, ACQ-Type D and propiconazole […] according to procedures detailed in AWPA Standard E7-01. Several of the compounds detailed in Table 1 are commercially available from Novus International, Saint Louis, Mo. (i.e., the composition abbreviated Biox AUSD is a blend of organic acid, inorganic acid and HMTBA and is sold under the trade name ACTIVATE® US WD; the compound abbreviated Biox C is HMBTA-Cu and is sold under the trade name MINTREX® Cu; the compound Biox C/Biox SE is a blend of ethoxyquin and HMTBA-Cu; the compound abbreviated Biox SE is ethoxyquin emulsion; the compound abbreviated Biox T is an antioxidant blend sold under the trade name TOXGUARD®, and the compound abbreviated Biox Z is HMTBA-Zn is sold under the trade name MINTREX® Zn).
(§4) Briefly, a full cell pressure process, simulating commercial practice as far as possible with laboratory plant equipment, using an initial vacuum, suitable temperature, and an appropriate pressure period was used. The amount of preservative absorbed by the block, i.e., the retention, was calculated for each preservative. After the test blocks were treated and weighed to obtain absorption, they were exposed to open laboratory conditions until the solvent evaporated and the moisture content was relatively stable. Then they were placed in a conditioning room for 21 days. The blocks were tested in the unleached condition.
(§5) Preparation of soil culture bottles. A soil substrate with a water holding capacity between 20% and 40% and a pH between 5.0 and 8.0 was used. The soil substrate, sifted and lightly compacted by tapping, was placed in 8-oz cylindrical culture bottles fitted with screw caps without liners. The bottles were about half-full. This amount of soil, about 118 ml for an 8-oz. culture bottle, weighed not less than 90 g when oven-dried. […] The soil was leveled and one feeder strip per block was placed in each bottle. The soil-filled bottles were autoclaved for 30 min (one time), with the caps loosened. Lids on jars with a breather hole were covered with a strip of cloth first-aid tape.
(§6) Preparation of test cultures. […] Sections (e.g., 10 mm squares) were cut from near the leading edge of mycelium in petri dish cultures and placed in contact with an edge of a feeder strip on the soil of the culture bottles.

[2] = test system: Gloeophyllum trabeum (ATCC 11539); assay: as above; format: cell-based; conditions: for Mean percent weight loss (s.d. in parentheses), G. trabeum: unleached southern pine blocks, 12 weeks, n = 5
Experimental: as §1, §2, §3, §4, §5, §6

[3] = over all Biox C retentions, ethanolamine retention 36 kg/m^3, no observable dose response

| SMILES | Mean percent weight loss (s.d. in parentheses), P. placenta ([1]; retention 0.05 kg/m^3) | Mean percent weight loss (s.d. in parentheses), P. placenta ([1]; retention 0.10 kg/m^3) | Mean percent weight loss (s.d. in parentheses), P. placenta ([1]; retention 0.50 kg/m^3) | Mean percent weight loss (s.d. in parentheses), P. placenta ([1]; retention 2.00 kg/m^3) | Mean percent weight loss (s.d. in parentheses), G. trabeum ([2]; retention 0.05 kg/m^3) | Mean percent weight loss (s.d. in parentheses), G. trabeum ([2]; retention 0.10 kg/m^3) | Mean percent weight loss (s.d. in parentheses), G. trabeum ([2]; retention 0.50 kg/m^3) | Mean percent weight loss (s.d. in parentheses), G. trabeum ([2]; retention 2.00 kg/m^3) | weight losses, P. placenta [1, 3] [%] | weight losses, G. trabeum [2, 3] | Mean percent weight loss (s.d. in parentheses), P. placenta ([1]; retention 0.010 kg/m^3) | Mean percent weight loss (s.d. in parentheses), P. placenta ([1]; retention 0.025 kg/m^3) | Mean percent weight loss (s.d. in parentheses), G. trabeum ([2]; retention 0.010 kg/m^3) | Mean percent weight loss (s.d. in parentheses), G. trabeum ([2]; retention 0.025 kg/m^3) |
| --- | --- | --- | --- | --- | --- | --- | --- | --- | --- | --- | --- | --- | --- | --- |
| CSCCC(O)C(=O)[O-].CSCCC(O)C(=O)[O-].[Zn+2] (centres unmarked) [Biox Z] | 50.4 (2.9) % | 47.7 (5.1) % | 42.6 (23.8) % | 26.1 (23.2) % | 38.8 (3.3) % | 26.4 (8.5) % | 28.9 (15.2) % | 27.8 (6.1) % | – | – | – | – | – | – |
| CSCCC(O)C(=O)[O-].CSCCC(O)C(=O)[O-].[Cu+2] (centres unmarked) [Biox C, copper bis(2-hydroxy-4-methylthio)butanoic acid] | 4.5 (0.8) % | 5.0 (1.0) % | 6.1 (0.4) % | 5.1 (0.7) % | 5.5 (0.7) % | 6.9 (1.8) % | 6.1 (0.7) % | 10.2 (5.3) % | ~5.0 | approximately 6.5% | – | – | – | – |
| CC(C)(C)C(O)(CCc1ccc(Cl)cc1)Cn1cncn1 (centres unmarked) [Tebuconazole, reference compound] | 15.5 (13.6) % | 2.8 (3.1) % | – | – | 3.2 (1.3) % | 1.0 (0.4) % | – | – | – | – | 24.9 (21.8) % | 22.4 (17.4) % | 15.5 (3.7) % | 11.8 (8.3) % |
